Data reported in patent US20250003952A1, “SENOLYTIC DRUG SCREENING METHOD AND SENOLYTIC DRUG” (KYOTO UNIVERSITY, priority 2021, published 2025).

Tests used:
[1] = test system: mice models; conditions: Chang et al., 2016, Childs et al.; cited from earlier work
[2] = target: T1, PGAM-Chk1 binding (Homo sapiens, UniProt O14757+P18669); assay: PGAM-Chk1 binding by anti-Chk1 immunoprecipitation and anti-PGAM Western blotting in Ras-induced senescent IMR90 cells; assay type: cell-based
T1 construct: endogenous in cells; host or cells: IMR90 human primary fibroblasts made senescent by retroviral oncogenic Ras
T1 sequence (P18669 2-254 limits assumed): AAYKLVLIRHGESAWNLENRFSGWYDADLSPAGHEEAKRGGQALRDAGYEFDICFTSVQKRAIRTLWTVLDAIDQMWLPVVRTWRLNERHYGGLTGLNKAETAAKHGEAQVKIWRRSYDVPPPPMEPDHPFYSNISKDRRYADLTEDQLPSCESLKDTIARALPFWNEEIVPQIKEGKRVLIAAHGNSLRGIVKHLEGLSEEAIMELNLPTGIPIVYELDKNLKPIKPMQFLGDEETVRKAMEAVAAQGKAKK
T1 sequence (O14757 1-476): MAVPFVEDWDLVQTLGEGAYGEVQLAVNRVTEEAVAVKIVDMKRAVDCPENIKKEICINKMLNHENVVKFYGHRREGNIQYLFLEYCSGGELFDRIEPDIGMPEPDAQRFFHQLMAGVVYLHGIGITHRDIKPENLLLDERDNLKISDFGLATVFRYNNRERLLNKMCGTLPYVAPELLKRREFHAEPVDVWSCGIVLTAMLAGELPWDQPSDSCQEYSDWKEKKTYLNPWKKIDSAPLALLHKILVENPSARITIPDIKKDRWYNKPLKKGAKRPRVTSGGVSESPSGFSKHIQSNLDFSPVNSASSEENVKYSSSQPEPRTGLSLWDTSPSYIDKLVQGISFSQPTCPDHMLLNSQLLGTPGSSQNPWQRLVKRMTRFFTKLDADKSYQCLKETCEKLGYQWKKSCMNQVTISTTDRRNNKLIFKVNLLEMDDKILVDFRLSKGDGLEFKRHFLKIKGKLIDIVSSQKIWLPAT
Protocol: Human primary fibroblasts, IMR90 cells, were obtained from the JCRB Cell Bank. An oncogenic Ras mutation was retrovirally introduced into young cells (within 1 month of continuous culture) of the IMR90 cells to induce cellular senescence. […] After that, these cells were treated with MG132 for 6 hours, and cell lysates were prepared. The obtained cell lysates were immunoprecipitated with an anti-Chk1 antibody. The resulting immunoprecipitate was used for Western blotting with an anti-PGAM antibody to evaluate PGAM-Chk1 binding.
Next, in the same manner as above, IMR90 cells were used to prepare stress-induced senescent cells by introducing an oncogenic mutated Ras gene. The senescent cells were transfected with an RSK1 siRNA (SEQ ID NO: 7) or a control to knock down RSK1. The resulting cells were collected, and proteins were extracted. The resulting protein extract was immunoprecipitated with an anti-Chk1 antibody. The resulting immunoprecipitate was used for Western blotting with an anti-PGAM antibody to evaluate PGAM-Chk1 binding.

[3] = test system: glycolytic metabolism; assay: Glycolytic metabolism (glucose consumption, lactate production) in etoposide-induced senescent IMR90 cells; assay type: cell-based, human; conditions: 20 μM or 40 μM for 48 hours
Protocol: Next, young cells (within 1 month of continuous culture) of the IMR90 cells were treated with 100 μM etoposide for 48 hours to acquire senescent cells. […] After the nutlin treatment, the medium was collected, and glucose consumption was evaluated and lactate production was measured. The lactate level is calculated as a value (μmol/mg/h) obtained by measuring the amount of lactate secreted into the medium per hour (μmol/h) and correcting the same by the total cell protein (mg) and is expressed as a value relative to the actual value on day 0. The glucose consumption is calculated as a value (μmol/mg/h) obtained by measuring the amount of glucose decreased from the medium per hour (μmol/h) and correcting the same by the total cell protein (mg) and is expressed as a value relative to the actual value on day 0. Glucose and lactate were measured by using a Glucose assay kit (BioVision) (upper diagram in FIG. 8) and a Lactate assay kit (BioVision) (lower diagram in FIG. 8), respectively.

[4] = target: T2, PGAM-Chk1 binding (Homo sapiens, UniProt O14757+P18669); assay: Nano-Bit PGAM-Chk1 binding in cancer cell line H1299; assay type: cell-based; conditions: H1299 cells; 40 μM for 12, 24, and 48 hours
T2 construct: expressed in transfected cells
Excerpt: PGAM and Chk1 kinase genes tagged with Nano-Bit tags were introduced into the cancer cell line H1299 to prepare a cell line capable of stable expression. […] The treated cells were used to measure intracellular luciferase luminescence signals by Nano-Bit for each.
T2 sequence (P18669 whole entry, one chain of several): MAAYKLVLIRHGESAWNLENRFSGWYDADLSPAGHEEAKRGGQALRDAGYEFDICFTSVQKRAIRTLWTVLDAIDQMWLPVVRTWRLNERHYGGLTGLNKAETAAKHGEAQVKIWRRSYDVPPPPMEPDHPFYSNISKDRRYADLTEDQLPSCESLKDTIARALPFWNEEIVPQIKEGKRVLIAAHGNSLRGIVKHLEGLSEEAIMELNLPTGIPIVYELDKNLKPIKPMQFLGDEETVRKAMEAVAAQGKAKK

[5] = test system: p53; assay: p53 activation (Western blot of p53 and p21) in young IMR90 cells; assay type: cell-based, human; conditions: 20 μM for 48 hours
Excerpt: After the treatment, proteins were extracted from the cells to carry out Western blotted.

[6] = test system: IMR90 cells; assay: Senolysis / cell death of young and Ras-induced senescent IMR90 cells; assay type: cell-based, human
Excerpt: Ras gene with oncogenic mutation was introduced into young cells (within 1 month of continuous culture) of IMR90 cells by retroviral infection to acquire senescent cells. […] The control received only DMSO treatment. Representative images of cells observed under a microscope are shown (FIG. 11).
An oncogenic mutated Ras gene was introduced into young cells (within 1 month of continuous culture) of IMR90 cells by retroviral infection to acquire stress-induced senescent cells. The young cells and the senescent cells were both treated with different concentrations of the RSK kinase inhibitor BI-D1870 for 96 hours to evaluate cell death.
An oncogenic mutated Ras gene was introduced into young cells (within 1 month of continuous culture) of IMR90 cells by retroviral infection to acquire stress-induced senescent cells. The young cells and the senescent cells of IMR90 were both transfected with an RSK1 siRNA (two types of siRNA #1 (SEQ ID NO: 7) or #2 (SEQ ID NO: 8) having different target sequences) or a control to knock down RSK1. Representative images of cells observed under a microscope are shown (upper diagram in FIG. 20).
An oncogenic Ras was introduced into young cells (within 1 month of continuous culture) of IMR90 cells to induce senescent cells (OIS). The young cells and the senescent cells of IMR90 were transfected with two HIF-2α-specific siRNAs (SEQ ID NO: 9 and SEQ ID NO: 10) having different target sequences to knock down HIF-2α.
An oncogenic Ras was introduced into young cells (within 1 month of continuous culture) of IMR90 cells to induce senescent cells (OIS). The young cells and the senescent cells of IMR90 were transfected with a BIM-specific siRNA to knock down BIM.
An oncogenic Ras was introduced into young cells (within 1 month of continuous culture) of IMR90 cells to induce senescent cells (OIS). In the young cells and the senescent cells of IMR90, HIF-2α alone or both HIF-2α and BIM were knocked down by using their respective specific siRNAs (SEQ ID NO: 9, SEQ ID NO: 10), and cell death was confirmed (FIG. 28).
The latter information consists of 12,655 ChIP datasets from 903 antigens (transcription factors and epigenetic regulators).

[7] = test system: BIM gene; assay: BIM gene expression in Ras-induced senescent IMR90 cells; assay type: cell-based, human; conditions: senescent (OIS) IMR90 cells; HIF-2α knockdown by siRNA
Protocol: An oncogenic Ras was introduced into young cells (within 1 month of continuous culture) of IMR90 cells to induce senescent cells (OIS).
An oncogenic Ras was introduced into young cells (within 1 month of continuous culture) of IMR90 cells to induce senescent cells (OIS). The senescent cells were transfected with an HIF-2α-specific siRNA (SEQ ID NO: 9) to knock down HIF-2α. After that, the expression of the BIM gene, which is an apoptosis-inducing gene, was analyzed (FIG. 26).

[8] = test system: Chk1 kinase; assay: S280 phosphorylation of Chk1 kinase after RSK1 knockdown in senescent IMR90 cells; assay type: cell-based, human; conditions: Ras-induced senescent IMR90 cells; RSK1 knockdown by siRNA
[9] = test system: Chk1 kinase; assay: S280 phosphorylation of Chk1 kinase by Western blot in H1299 cells; assay type: cell-based; conditions: 10 μM for 48 hours
Protocol: When each inhibitor (U126 and BI-D1870) was administered to cancer cells, PGAM-Chk1 kinase binding was inhibited, and glycolytic metabolism decreased (Mikawa et al., 2020). RSK kinase was already known to directly control the phosphorylation of the S280 residue of Chk1 kinase (Li et al., 2012, Mol Biol Cell 23, 1582-1592). […] Specifically, cancer cell line H1299 cells were treated with the MEK kinase inhibitor (U126) at a concentration of 10 μM for 48 hours. The treated cells were collected, and proteins were extracted and then Western blotted. It was confirmed that the S280 phosphorylation of Chk1 kinase was suppressed although the protein level of Chk1 kinase was not changed. In addition, the present inventors prepared S280A mutants of Chk1 kinase. […] Specifically, PGAM and Chk1 kinase genes tagged with Nano-Bit tags were introduced into IMR90 cells to prepare a cell line capable of stable expression. At this time, three types of Chk1, i.e., wild-type Chk1 and S280A mutant Chk1 or S280D mutant Chk1, were each introduced into the cells. An oncogenic mutated Ras gene was introduced into these cells by retroviral infection to acquire stress senescent cells. The obtained senescent cells were used to measure intracellular luciferase luminescence signals by Nano-Bit for each.

[10] = test system: PGAM-Chk1 kinase binding; conditions: cancer cells; Mikawa et al., 2020; cited from earlier work

## CC1(C)CCC(c2ccc(Cl)cc2)=C(CN2CCN(c3ccc(C(=O)NS(=O)(=O)c4ccc(N[C@H](CCN5CCOCC5)CSc5ccccc5)c(S(=O)(=O)C(F)(F)F)c4)cc3)CC2)C1 [ABT263]
[1]
  aging-relevant dysfunctions and artherosclerosis: alleviated

## COc1ccc(C2=N[C@@H](c3ccc(Cl)cc3)[C@@H](c3ccc(Cl)cc3)N2C(=O)N2CCNC(=O)C2)c(OC(C)C)c1 [nutlin 3a]
[2]; 20 μM or 40 μM for 48 hours, then MG132 6 hours
  PGAM-Chk1 binding (interaction): inhibit PGAM-Chk1 interaction to the same extent
[3]
  glucose consumption: suppressed in a dose-dependent manner
  lactate production: suppressed in a dose-dependent manner
[4]
  luciferase luminescence signal by Nano-Bit (PGAM-Chk1 binding): treatment time-dependent decrease
[5]
  protein level of p21: markedly increased
  protein level of p53: markedly increased
[6]; young and Ras-induced senescent IMR90 cells, 40 μM for 72 hours
  cell death observed under a microscope: cell death and cell number decrease were observed in both the young cells and the senescent cells

## HIF-2α-specific siRNA (SEQ ID NO: 9): HIF-2α-specific siRNA, SEQ ID NO: 9 (CACCUACUGUGAUGACAGA; listed as RNA, chemistry not given here)
[6]; young and Ras-induced senescent (OIS) IMR90 cells, siRNA transfection
  cell death after HIF-2α knockdown: selective cell death (senolysis)
[7]
  expression of the apoptosis-inducing gene BIM: increased

## RSK1 siRNA #1: RSK1 siRNA including the sequence of SEQ ID NO: 7 (CACUGAUUCUGAAGGCGAA; listed as RNA, chemistry not given here)
[2]; RSK1 knockdown by siRNA
  PGAM-Chk1 binding: inhibition of PGAM-Chk1
[6]; young and Ras-induced senescent IMR90 cells, siRNA transfection
  senolysis phenomenon with knockdown of RSK1: young cells are normal, but senescent cells selectively die
[8]
  S280 phosphorylation of Chk1 kinase: decreased

## N#CC(=C(/N)Sc1ccccc1N)/C(C#N)=C(/N)Sc1ccccc1N [U126]
[9]
  S280 phosphorylation of Chk1 kinase: suppressed
  protein level of Chk1 kinase: not changed
[10]
  PGAM-Chk1 kinase binding: inhibited
  glycolytic metabolism: decreased
